Experimental data taken from patent US9113629B2, “4-amino-6-(4-substituted-phenyl)-picolinates and 6-amino-2-(4-substituted-phenyl)-pyrimidine-4-carboxylates and their use as herbicides” (DOW AGROSCIENCES LLC, priority 2013, dated 2015).
Like-named read-outs stand apart in the source and are kept apart here.

How the values were obtained:
[1] = tested on: Key Broadleaf Weed and Crop Species; experiment: Post-emergent Test II herbicidal activity (Table 5); format: in vivo; conditions: post-emergence, 336 h, post-emergent, 14 days after application; for pest or weed control at 70 g/ha: 70 g ai/ha; for pest or weed control at 140 g/ha: 140 g ai/ha
Outline: (§1)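 Injury was rated visually 14 d after treatment on a 0–100% scale against untreated controls. Test compounds, formulated with crop oil concentrate and surfactant and serially diluted down to 1/16× of the top rate, were applied by track sprayer at 187 L/ha onto first- to second-true-leaf seedlings.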

[2] = tested on: Key Grass and Sedge Weeds as well as Grass Crops; experiment: Post-emergent Test II herbicidal activity (Table 6); format: in vivo; conditions: post-emergence, 336 h; for pest or weed control at 70 g/ha: application rate 70 g ai/ha; for pest or weed control at 140 g/ha: application rate 140 g ai/ha
Outline: as §1

[3] = ABUTH: velvetleaf (Abutilon theophrasti), read-out: Visual Growth Reduction (%) 14 Days After Application ABUTH
[4] = AMARE: redroot pigweed (Amaranthus retroflexus), read-out: Visual Growth Reduction (%) 14 Days After Application AMARE
[5] = BRSNN: oilseed-rape, canola (Brassica napus), read-out: Visual Growth Reduction (%) 14 Days After Application BRSNN
[6] = CHEAL: lambsquarters (Chenopodium album), read-out: Visual Growth Reduction (%) 14 Days After Application CHEAL
[7] = EPHHL: wild poinsettia (Euphorbia heterophylla), read-out: Visual Growth Reduction (%) 14 Days After Application EPHHL
[8] = HELAN: sunflower (Helianthus annuus), read-out: Visual Growth Reduction (%) 14 Days After Application HELAN
[9] = VIOTR: wild pansy (Viola tricolor), read-out: Visual Growth Reduction (%) 14 Days After Application VIOTR
[10] = Triticum aestivum, TRZSS (wheat), read-out: Visual Growth Reduction (%) 14 Days After Application, TRZSS
[11] = CYPES: yellow nutsedge (Cyperus esculentus), read-out: Visual Growth Reduction (%) 14 Days After Application, CYPES
[12] = DIGSA: crabgrass (Digitaria sanguinalis), read-out: Visual Growth Reduction (%) 14 Days After Application, DIGSA
[13] = ECHCG: barnyardgrass (Echinochloa crus-galli), read-out: Visual Growth Reduction (%) 14 Days After Application, ECHCG
[14] = ORYSA: rice (Oryza sativa), read-out: Visual Growth Reduction (%) 14 Days After Application, ORYSA
[15] = SETFA: giant foxtail (Setaria faberi), read-out: Visual Growth Reduction (%) 14 Days After Application, SETFA
[16] = SORVU: grain sorghum (Sorghum vulgare), read-out: Visual Growth Reduction (%) 14 Days After Application, SORVU
[17] = ZEAMX: maize, corn (Zea mays), read-out: Visual Growth Reduction (%) 14 Days After Application, ZEAMX

| Compound | pest or weed control at 70 g/ha [1, 3] | pest or weed control at 140 g/ha [1, 3] | pest or weed control at 70 g/ha [1, 4] | pest or weed control at 140 g/ha [1, 4] | pest or weed control at 70 g/ha [1, 5] | pest or weed control at 140 g/ha [1, 5] | pest or weed control at 70 g/ha [1, 6] | pest or weed control at 140 g/ha [1, 6] | pest or weed control at 70 g/ha [1, 7] | pest or weed control at 140 g/ha [1, 7] | pest or weed control at 70 g/ha [1, 8] | pest or weed control at 140 g/ha [1, 8] | pest or weed control at 70 g/ha [1, 9] | pest or weed control at 140 g/ha [1, 9] | pest or weed control at 70 g/ha [2, 10] | pest or weed control at 140 g/ha [2, 10] | pest or weed control at 70 g/ha [2, 11] | pest or weed control at 140 g/ha [2, 11] | pest or weed control at 70 g/ha [2, 12] | pest or weed control at 140 g/ha [2, 12] | other results |
| --- | --- | --- | --- | --- | --- | --- | --- | --- | --- | --- | --- | --- | --- | --- | --- | --- | --- | --- | --- | --- | --- |
| Nc1c(Cl)c(C(=O)O)nc(-c2ccc(I)c(F)c2)c1Cl [Compound 145, 4-Amino-3,5-dichloro-6-(3-fluoro-4-iodophenyl)picolinic acid] | 45 to 59% | 60 to 74% | 75 to 84% | 95 to 100% | 95 to 100% | 95 to 100% | 95 to 100% | 95 to 100% | 60 to 74% | 60 to 74% | 95 to 100% | 95 to 100% | 0 to 29% | 0 to 29% | 60 to 74% | 60 to 74% | 45 to 59% | 45 to 59% | 85 to 94% | 85 to 94% | pest or weed control at 70 g/ha [2, 13]: 75 to 84%; pest or weed control at 140 g/ha [2, 13]: 75 to 84%; pest or weed control at 70 g/ha [2, 14]: 0 to 29%; pest or weed control at 140 g/ha [2, 14]: 0 to 29%; pest or weed control at 70 g/ha [2, 15]: 75 to 84%; pest or weed control at 140 g/ha [2, 15]: 75 to 84%; pest or weed control at 70 g/ha [2, 16]: 85 to 94%; pest or weed control at 140 g/ha [2, 16]: 85 to 94%; pest or weed control at 70 g/ha [2, 17]: 75 to 84%; pest or weed control at 140 g/ha [2, 17]: 75 to 84% |
| Nc1c(Cl)c(C(=O)O)nc(-c2ccc(C(F)(F)F)c(F)c2)c1Cl [Compound 146] | 75 to 84% | 85 to 94% | 75 to 84% | 85 to 94% | 85 to 94% | 85 to 94% | 85 to 94% | 85 to 94% | 0 to 29% | 0 to 29% | 95 to 100% | 95 to 100% | 0 to 29% | 0 to 29% | 60 to 74% | 75 to 84% | 95 to 100% | 95 to 100% | 60 to 74% | 60 to 74% | pest or weed control at 70 g/ha [2, 13]: 75 to 84%; pest or weed control at 140 g/ha [2, 13]: 85 to 94%; pest or weed control at 70 g/ha [2, 14]: 0 to 29%; pest or weed control at 140 g/ha [2, 14]: 0 to 29%; pest or weed control at 70 g/ha [2, 16]: 30 to 44%; pest or weed control at 140 g/ha [2, 16]: 30 to 44%; pest or weed control at 70 g/ha [2, 17]: 60 to 74%; pest or weed control at 140 g/ha [2, 17]: 60 to 74% |
